Entries after “also recorded” stand apart in the source; their conditions may differ.
Columns and labels:
pMEK, pERK, pRSK, pAKT = assay: Immunoblot of pathway markers after compound treatment; type: cell-based; details: A549 and HCT-116; 1 μM HM95573, 250 nM cobimetinib; FIGS. 5D-5E
Procedure: (§1) Cells lysed in lysis buffer (0.5% NP40, 20 mM Tris, pH 7.5, 137 mM NaCl, 10% glycerol, 1 mM EDTA) plus protease inhibitor mixture-complete mini (Roche Applied Science, 11836170001) and phosphatase inhibitor mix (Thermo, 78426). Lysates were centrifuged at 15,000 rpm for 10 minutes and the protein concentration determined using BCA (Thermo, 23227). Equal amounts of protein were subjected to SDS-PAGE NuPAGE 4-12% Bis-Tris Gel (Novex, WG-1403) and transferred to nitrocellulose membrane (BioRad, 170-4159). After blocking in blocking buffer (Li-Cor, 927-40000), membranes were incubated with the indicated primary antibodies and analyzed either by the addition of secondary antibodies IRDye 680LT Goat anti-Mouse IgG (H+L) (Li-Cor, 926-68050) or IRDye 800CW goat anti-Rabbit IgG (H+L) (Li-Cor, 926-32211). The membranes were visualized on the LiCor Odyssey CLx Scanner.

[1] = system: KRAS mutant syngeneic CRC xenograft model CT26; assay: CT26 tumor growth model; type: in vivo; details: 5 mg/kg each orally once a day, 21 days, vs either agent alone, FIGS. 5F-5G
[2] = system: 196 lung, colon, skin, and ovarian cancer cell lines; assay: 196 cell line screen, HM95573 and cobimetinib co-dilution; type: cell-based
Procedure: Compounds were screened in nine-point dose response using a three-fold dilution. Cells were seeded into 384-well plates 24 hours prior to compound addition. Cells were then incubated with compound for 72 hours or 120 hours before assaying viability (CellTiter-Glo, Promega). Assays were performed in biological triplicate. Cells were incubated (37° C., 5% CO2) in RPMI-1640, 2.5% FBS (72 hour assay) or 5% FBS (120 hour assay), and 2 mM glutamine throughout the assay. The reported IC50 and mean viability metrics are as follows: IC50 is the dose at which the estimated inhibition is 50% relative to untreated wells (i.e., absolute IC50). Mean viability is equivalent to the area under the log-dose/viability curve divided by the total number of tested doses.
For combination synergy studies, cells were plated in 384-well plates (Corning) and treated with varying concentrations of compound, either alone or in combination for 72 hours. Cell viability was determined using CellTiter-Glo Luminescent Cell Viability Assay (Promega, G7573). Synergistic effects were determined using the Bliss independence analysis methods (Greco et al. Pharmacol. Rev. 47: 331-385, 1995; Chou and Talalay. Adv. Enzyme Regul. 22:27-55, 1984; Chou. Cancer Res. 70: 440-446, 2010; Bliss. Ann. Appl. Biol. 25: 31, 1939).

[3] = system: A549 KRAS-mutant lung cancer cell line; assay: Tool compound combination screen with AZ-628; type: cell-based; details: 1 μM AZ-628 versus DMSO, FIG. 1D-1E
Procedure: A compound library comprising 480 compounds arrayed in 9-point dose response was screened in the absence or presence of a fixed dose of either AZ-628 or DMSO in A549 cells. A549 cells were seeded into 384 well plates, and compound was added 24 h later. Cell viability was determined 120 h post-compound addition (CellTiter Glo). Curves were fitted, and both IC50 and mean viability metrics were calculated. The IC50 is the dose at which inhibition is 50% relative to untreated wells. The mean viability is the average of the fitted viabilities at each tested dose. Mean viability is equivalent to the area under the log-dose/viability curve divided by the total number of tested doses. All data were fitted using Genedata Screener (GDS) software. The combination metric was the difference in mean viability between the AZ-628 treated arm and the DMSO treated arm for each compound.

A549 cells = assay: Clonogenic (colony growth) assay; type: cell-based; details: 8-day clonogenic; 50-100 nM cobimetinib, 100 nM AZ-628
Procedure: Cells were plated in duplicate in 6-well plates at 10,000 cells/well, allowed to attach overnight and treated for 8 days with the indicated compounds. Media with appropriate compounds was replenished every 72 hours. At 8 days cells were rinsed once with PBS, fixed and stained with crystal violet solution (Sigma Aldrich, HT90132) for 20 minutes and washed with water.

pMEK = assay: Immunoblot of pMEK after cobimetinib in KRAS mutant and wild-type cell lines; type: cell-based; details: for pMEK levels after treatment: cobimetinib 24 hours
Procedure: as §1

BRAF-CRAF heterodimer = assay: CRAF immunoprecipitation (RAF dimerization); type: cell-based
Procedure: (§2) Cells were plated and lysed as described in immunoblotting method. Cell lysates were incubated with anti-CRAF (Millipore 07-396) or anti-BRAF antibody (Millipore 07-453) and 50 μl of Protein A agarose beads (Millipore 16-125) for 2 h at 4° C. After washing with lysis buffer plus protease and phosphatase inhibitor mixtures, protein A beads were incubated with 0.4 μg of unactive MEK1 (Millipore 14-420) in 40 μl of kinase buffer (20 mM MOPS, pH 7.2, 25 mM β-glycerol phosphate, 5 mM EGTA, 1 mM sodium orthovanadate, 1 mM DTT, 120 μM ATP, 18 mM MgCl2) for 30 min at 30° C. Samples were then analyzed by Western blot.

RAF dimers = biological target: T1, RAF dimers (Homo sapiens, UniProt P04049+P15056); assay: In vitro kinase assay of immunoprecipitated RAF with unactive MEK; type: biochemical
T1 construct: Cobimetinib-induced RAF dimers were immunoprecipitated from A549 cells; endogenous in cells; A549, H2122 and HCT116 for cobimetinib induction
Procedure: as §2

RAS-GTP = assay: Ras activity assay (RAF1-RBD pull-down); type: cell-based
Procedure: Levels of active GTP-loaded Ras were determined by GST-Raf-RBD pull-down assay (Thermo Scientific, 16117). In brief, GST-Raf-RBD fusion proteins were incubated with glutathione beads, and cells were collected in lysis buffer as recommended by the manufacturer. The cell lysates were incubated with the GST-Raf-RBD immobilized beads for 1.5 hours at 4° C. Bound proteins were eluted with SDS sample buffer and analyzed by Western blot.

pEGFR = assay: Immunoblot of pEGFR after cobimetinib; type: cell-based; details: cobimetinib 250 nM, 24 hours; FIG. 6K
Procedure: as §1

[4] = system: NRAS mutant melanoma cell line; assay: Viability of NRAS mutant melanoma versus BRAF-V600E and wild-type lines; type: cell-based; details: separate study; FIGS. 8C and 8D
Procedure: Compounds were screened in nine-point dose response using a three-fold dilution. Cells were seeded into 384-well plates 24 hours prior to compound addition. Cells were then incubated with compound for 72 hours or 120 hours before assaying viability (CellTiter-Glo, Promega). Assays were performed in biological triplicate. […] Mean viability is equivalent to the area under the log-dose/viability curve divided by the total number of tested doses.

[5] = system: HCT116 colon xenograft tumor; assay: HCT116 colon xenograft tumor model; details: HCT116; LY-3009120 25 mg/kg IP QD; cobimetinib 5 mg/kg PO QD; FIG. 3A
Procedure: The formulations were mixed well by vortexing before dosing. Test articles were stored in a refrigerator set to maintain a temperature range of 4° C.-7° C.
Only animals that appeared to be healthy and that were free of obvious abnormalities were used for each study. Tumor volumes were determined using digital calipers (Fred V. Fowler Company, Inc.) using the formula (L×W×W)/2. […] Mice were weighed twice a week using a standard scale.

T1 sequence (P04049 whole entry): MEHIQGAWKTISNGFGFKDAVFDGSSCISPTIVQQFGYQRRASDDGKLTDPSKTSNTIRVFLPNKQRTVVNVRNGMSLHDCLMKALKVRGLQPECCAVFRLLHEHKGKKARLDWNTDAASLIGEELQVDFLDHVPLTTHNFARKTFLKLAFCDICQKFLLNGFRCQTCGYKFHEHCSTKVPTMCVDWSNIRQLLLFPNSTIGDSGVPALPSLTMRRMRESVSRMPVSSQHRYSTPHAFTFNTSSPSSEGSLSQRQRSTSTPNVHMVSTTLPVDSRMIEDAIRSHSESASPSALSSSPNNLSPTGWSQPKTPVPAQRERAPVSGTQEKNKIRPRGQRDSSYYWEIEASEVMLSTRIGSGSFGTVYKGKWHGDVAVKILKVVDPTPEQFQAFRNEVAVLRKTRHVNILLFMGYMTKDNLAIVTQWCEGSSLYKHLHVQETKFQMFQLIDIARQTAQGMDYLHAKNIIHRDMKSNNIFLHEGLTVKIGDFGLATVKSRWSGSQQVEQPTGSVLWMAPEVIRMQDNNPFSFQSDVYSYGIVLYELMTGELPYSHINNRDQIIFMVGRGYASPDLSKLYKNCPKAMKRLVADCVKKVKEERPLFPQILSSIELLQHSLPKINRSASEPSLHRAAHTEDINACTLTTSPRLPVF
T1 sequence (P15056 2-766 limits assumed): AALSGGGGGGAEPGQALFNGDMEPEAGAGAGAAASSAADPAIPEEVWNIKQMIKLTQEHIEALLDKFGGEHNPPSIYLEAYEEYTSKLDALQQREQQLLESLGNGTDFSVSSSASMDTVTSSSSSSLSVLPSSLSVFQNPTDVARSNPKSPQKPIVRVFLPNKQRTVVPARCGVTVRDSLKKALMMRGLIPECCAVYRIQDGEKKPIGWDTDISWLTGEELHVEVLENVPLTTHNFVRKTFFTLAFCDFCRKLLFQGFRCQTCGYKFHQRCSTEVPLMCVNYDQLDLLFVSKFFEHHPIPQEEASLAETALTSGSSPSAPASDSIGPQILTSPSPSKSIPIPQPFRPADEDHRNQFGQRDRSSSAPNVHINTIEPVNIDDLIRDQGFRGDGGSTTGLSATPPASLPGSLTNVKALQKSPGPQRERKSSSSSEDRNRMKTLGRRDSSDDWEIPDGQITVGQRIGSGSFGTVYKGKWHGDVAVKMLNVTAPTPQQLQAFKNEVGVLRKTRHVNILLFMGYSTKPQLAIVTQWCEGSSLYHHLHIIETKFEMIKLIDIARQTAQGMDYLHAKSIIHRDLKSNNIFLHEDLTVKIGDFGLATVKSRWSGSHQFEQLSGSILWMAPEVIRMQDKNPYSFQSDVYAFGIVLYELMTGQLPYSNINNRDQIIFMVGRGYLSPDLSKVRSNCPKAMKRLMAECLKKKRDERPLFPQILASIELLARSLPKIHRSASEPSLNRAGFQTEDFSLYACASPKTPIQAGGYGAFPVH

SMILES	combination activity with cobimetinib on pMEK, pERK, pRSK (pMEK, pERK, pRSK, pAKT)	tumor growth inhibition (TGI), combination with cobimetinib [1]	association of combination sensitivity with KRAS-G13D ([2]; HM95573 and cobimetinib, colorectal and lung lines, FIG. 6D)	synergy score (positive Bliss excess) with cobimetinib by genotype ([2]; co-dilution with cobimetinib, three days, FIG. 5H)	hit ranking / mean viability difference with AZ-628 [3]	single-agent effect on cell growth (A549 cells)	pMEK levels after treatment (pMEK; KRAS mutant vs KRAS wild-type cells, FIG. 4A)	pMEK levels after treatment (pMEK; synergistic vs non-synergistic colon and lung lines, FIGS. 4B-4D)	induction of pMEK, KRAS-G13D vs non-KRAS-G13D (pMEK; colorectal cell lines, cobimetinib 250 nM, 24 hr, FIG. 6E)	concentration at which BRAF-CRAF heterodimer formation and increase in kinase activity occur (BRAF-CRAF heterodimer; A549, dose-dependent, FIG. 4E)	BRAF co-immunoprecipitation with CRAF (BRAF-CRAF heterodimer; KRAS mutant cell lines (A549, H2122, and HCT116), FIG. 4A)	kinase activity of RAF dimers after treatment (RAF dimers; KRAS mutant cell lines, vs DMSO, FIG. 4A)	pMEK levels in in vitro RAF kinase assay (RAF dimers; colorectal lines with or without synergy, cobimetinib, FIG. 5B-5C)	RAS-GTP levels (RAS-GTP; KRAS mutant lines, cobimetinib treatment, FIG. 4A)	active RAS-GTP in response to treatment (RAS-GTP; panel of colorectal cancer cell lines, FIG. 5I)	EGFR activation (pEGFR levels) (pEGFR)	cell viability and 1050, NRAS mutant vs BRAF-V600E [4]	tumor growth, single agent [5]
Cc1ccc2c(Nc3cccc(Cl)c3F)nccc2c1NC(=O)c1csc2c(N)ncnc12 [HM95573]	combination activity was also observed; also recorded: combination activity is observed	improved tumor growth inhibition (TGI) in vivo	This trend was most evident in colorectal cancer lines	significantly higher synergy scores were observed in RAS mutant cell lines compared to either BRAF-V600 mutants or wild-type; also recorded: greater synergy in RAS mutant cell lines and a subset of RAS/RAF wild-type cell lines relative to BRAF-V600 cell lines														
O=C(c1ccc(F)c(F)c1Nc1ccc(I)cc1F)N1CC(O)([C@@H]2CCCCN2)C1 [cobimetinib]					top hit; also recorded: scored highest among the compounds tested	had little effect on cell growth on their own	an increase in the pMEK levels in the KRAS mutant cells but not the KRAS wild-type cells	an increase in the pMEK levels in the KRAS mutant and wild-type synergistic cells but not the KRAS mutant and wild-type non-synergistic cells	stronger induction of pMEK in G13D cell lines; also recorded: more enhanced induction of pMEK following MEK inhibition relative to other KRAS mutants	50 to 100 nM	BRAF strongly co-immunoprecipitated with CRAF	highly active	strong increases in pMEK levels after cobimetinib treatment were observed, primarily in the lines showing synergy	elevated RAS-GTP levels at baseline and upon cobimetinib treatment; also recorded: increased RAS-GTP levels	Only cell lines showing synergy showed increased active RAS-GTP in response to cobimetinib treatment	little evidence of EGFR activation	showed greater efficacy in the BRAF-V600E cell line relative to the NRAS mutant cell line	modestly inhibited tumor growth

Reference: patent publication US11859252B2, “Diagnostic and therapeutic methods for cancer” (Genentech, Inc., priority 2017, dated 2024)
